Series [1] is described as follows: Metabolic stability in rat liver microsomes assessed as turnover after 60 mins. The conditions noted are these: read-out: Stability. It is filed as ADME, Microsome.
Series [2] concerns the target Dipeptidyl peptidase 4 (Homo sapiens, UniProt P27487). As to the kind of experiment: Inhibition of DPP4 by continuous fluorimetric assay.

Sequence of Dipeptidyl peptidase 4 (P27487 whole entry): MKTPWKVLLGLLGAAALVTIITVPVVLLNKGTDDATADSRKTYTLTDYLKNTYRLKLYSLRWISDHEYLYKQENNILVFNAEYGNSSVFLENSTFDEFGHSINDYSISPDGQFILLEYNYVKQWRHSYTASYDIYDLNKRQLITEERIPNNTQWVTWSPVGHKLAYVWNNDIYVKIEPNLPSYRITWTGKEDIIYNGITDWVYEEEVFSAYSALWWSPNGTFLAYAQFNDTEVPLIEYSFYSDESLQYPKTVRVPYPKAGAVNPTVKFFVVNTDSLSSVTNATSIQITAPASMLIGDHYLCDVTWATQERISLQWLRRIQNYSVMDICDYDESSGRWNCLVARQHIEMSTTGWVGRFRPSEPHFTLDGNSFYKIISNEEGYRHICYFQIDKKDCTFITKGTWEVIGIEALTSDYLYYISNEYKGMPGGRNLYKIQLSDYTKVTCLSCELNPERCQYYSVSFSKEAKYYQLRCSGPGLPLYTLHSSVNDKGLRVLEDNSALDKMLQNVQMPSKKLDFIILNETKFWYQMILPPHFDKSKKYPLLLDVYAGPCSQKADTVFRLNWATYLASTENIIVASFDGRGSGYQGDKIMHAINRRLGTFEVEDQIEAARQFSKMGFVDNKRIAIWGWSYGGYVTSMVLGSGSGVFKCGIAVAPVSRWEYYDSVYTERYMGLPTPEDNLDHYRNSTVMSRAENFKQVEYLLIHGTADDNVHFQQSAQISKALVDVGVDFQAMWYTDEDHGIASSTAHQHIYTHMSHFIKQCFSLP

Consider `N[C@@H](CC(=O)N1CCC[C@H]1CNC(=O)c1ccccc1)Cc1ccccc1F`, for which the metabolised at 1 h in series [1] worked out at 76%.
`N[C@@H](CC(=O)N1CCC[C@H]1CNS(=O)(=O)c1ccc(Cl)cc1)Cc1ccccc1F`: the IC50 in series [2] was 20 nM. This lies in the double-digit nanomolar range.
The same measure, in the same setting: for `N[C@@H](CC(=O)N1CCC[C@H]1CNC(=O)c1ccccc1F)Cc1ccccc1F` the value was 49 nM; for `N[C@@H](CC(=O)N1CCC[C@H]1CNC(=O)c1cccc(F)c1)Cc1ccccc1F`, 92 nM; for `N[C@@H](CC(=O)N1CCC[C@H]1CNC(=O)c1ccc(F)cc1)Cc1ccccc1F`, 92 nM.
The same measure, in the same setting: under `CS(=O)(=O)c1ccc(C(=O)NC[C@@H]2CCCN2C(=O)C[C@H](N)Cc2ccccc2F)cc1` stands 77 nM.
Same read-out and setting: for `N[C@@H](CC(=O)N1CCC[C@H]1CNC(=O)c1ccccn1)Cc1ccccc1F` the value was 47 nM; for `N[C@@H](CC(=O)N1CCC[C@H]1CNS(=O)(=O)c1cc(Cl)ccc1Cl)Cc1ccccc1F`, 24 nM; for `N[C@@H](CC(=O)N1CCC[C@H]1CNC(=O)c1ccccc1)Cc1cccc(Cl)c1`, 27 nM.
`N[C@@H](CC(=O)N1CCC[C@H]1CNS(=O)(=O)c1cccc(F)c1)Cc1ccccc1F` yielded an IC50 in series [2] of 94 nM.
Same read-out and setting: under `N[C@@H](CC(=O)N1CCC[C@H]1CNC(=O)c1ccncc1)Cc1ccccc1F` stands 66 nM; under `CS(=O)(=O)c1ccccc1C(=O)NC[C@@H]1CCCN1C(=O)C[C@H](N)Cc1ccccc1F`, 27 nM.
In turn, `N[C@@H](CC(=O)N1CCC[C@H]1CNC(=O)c1cccnc1)Cc1ccccc1F` yielded an IC50 in series [2] of 87 nM.
With `N[C@@H](CC(=O)N1CCC[C@H]1CNS(=O)(=O)c1ccc(F)cc1)Cc1ccccc1F`, the half-inhibitory concentration (IC50) in series [2] turned out to be 27 nM.
